Values of other authors in patent US4122184A, “Benzimidazole insecticides” (priority 1977, dated 1978).
Where two headings read alike, the source gives them in different places.

What was measured:
boll weevils = details: 250 ppm; cited from earlier work
house flies = details: cited from earlier work
Southern armyworm larvae = details: 250 ppm; cited from earlier work
oriental roaches = details: 250 ppm; cited from earlier work
milkweed bugs = details: 250 ppm; cited from earlier work

| SMILES | insecticidal activity (boll weevils) | insecticidal activity (house flies; 1000 ppm) | insecticidal activity (Southern armyworm larvae) | insecticidal activity (oriental roaches) | insecticidal activity (milkweed bugs) | insecticidal activity (house flies; 250 ppm) |
| --- | --- | --- | --- | --- | --- | --- |
| FC(F)(F)c1nc2ccc(Cl)c(Cl)c2[nH]1 [2-trifluoromethyl-4,5-dichlorobenzimidazole] | without action | excellent only at 1000 ppm | complete kill | without action | without action |  |
| FC(F)(F)c1nc2cc(Cl)c(Cl)cc2[nH]1 [2-trifluoromethyl-5,6-dichlorobenzimidazole] | no activity |  | same excellent activity | no activity | no activity | no activity |
